Values quoted from earlier work, collected in EP0615447B1, “SLOW-RELEASE FLURBIPROFEN-CONTAINING MEDICAMENT AND ITS USE” (ALFATEC-PHARMA GmbH, priority 1991, dated 1993).

Legend:
[1] = aqueous medium; compared with the racemate
[2] = water
[3] = in vivo

SMILES | Auflösungsgeschwindigkeit [1] | pKA | Löslichkeit in Wasser [2] | Plasmahalbwertszeit [3]
CC(C(=O)O)c1ccc(-c2ccccc2)c(F)c1 (racemic) [Pseudoracemat] | wesentlich höher | – | – | –
CC(C(=O)O)c1ccc(-c2ccccc2)c(F)c1 (racemic) [Flurbiprofen, 2-(2-Fluor-4-biphenylyl)propionsäure] | – | 4,16 | 32,5 mg/l | 3,9 h
